Data reported in US20230302104A1, “TREATMENT AND/OR PREVENTION OF A DISEASE OR A SYNDROME RELATED TO A VIRUS INFECTION” (priority 2020, published 2023).

Tests used:
[1] = tested on: SARS-CoV-2 spike pseudovirus entry in ACE2 overexpressing A549 human lung alveolar basal epithelium cells; assay type: cell-based
[2] = tested on: SARS-CoV-2 spike pseudotyped lentivirus entry in HeLa cells overexpressing TMPRSS2; assay type: cell-based; settings: 10 µM

With plasma derived AAT the “effect on SARS-CoV-2 pseudoviral entry in combination with IFN-beta-1a” value [1] was “additive inhibitory effect” and the “inhibitory effect on SARS-CoV-2 pseudoviral cell-entry” value [2] was “no inhibitory effect”.

For rhAAT, the SARS-CoV-2 pseudovirus entry [1] was “inhibits viral entry of several viruses”.
